The values that follow come from patent US7875619B2, “Hetero substituted sodium channel blockers” (Parion Sciences, Inc., priority 2004, dated 2011).

SMILES strings stand for the structures. Where a name gives a salt, the structure may show the parent alone.

Series [1] has as its target T1, sodium channel (ENaC), canine bronchial epithelia (Canis lupus familiaris, UniProt A0A8I3MKE6+A0A8I3Q679+Q95165).
T1 construct: endogenous in cells; host or cells: primary canine bronchial epithelial cells cultured at air-liquid interface, mounted in Ussing chambers
T1 sequence (A0A8I3Q679 1-649): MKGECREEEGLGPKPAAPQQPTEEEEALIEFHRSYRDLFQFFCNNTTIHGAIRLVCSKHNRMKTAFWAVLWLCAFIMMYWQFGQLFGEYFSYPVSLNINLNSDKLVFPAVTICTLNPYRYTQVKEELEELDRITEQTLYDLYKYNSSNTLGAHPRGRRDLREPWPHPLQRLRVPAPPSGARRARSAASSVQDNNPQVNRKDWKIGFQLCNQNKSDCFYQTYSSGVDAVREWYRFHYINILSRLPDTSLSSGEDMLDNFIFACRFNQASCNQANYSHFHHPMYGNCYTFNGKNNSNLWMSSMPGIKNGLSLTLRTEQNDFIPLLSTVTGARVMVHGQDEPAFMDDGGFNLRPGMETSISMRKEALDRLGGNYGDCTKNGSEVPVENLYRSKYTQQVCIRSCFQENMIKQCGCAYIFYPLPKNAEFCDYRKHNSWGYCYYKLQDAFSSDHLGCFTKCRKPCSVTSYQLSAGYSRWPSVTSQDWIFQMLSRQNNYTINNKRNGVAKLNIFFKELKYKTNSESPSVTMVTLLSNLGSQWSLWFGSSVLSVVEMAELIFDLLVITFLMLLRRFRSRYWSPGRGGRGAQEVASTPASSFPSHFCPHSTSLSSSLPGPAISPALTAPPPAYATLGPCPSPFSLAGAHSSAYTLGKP
T1 sequence (Q95165 1-641): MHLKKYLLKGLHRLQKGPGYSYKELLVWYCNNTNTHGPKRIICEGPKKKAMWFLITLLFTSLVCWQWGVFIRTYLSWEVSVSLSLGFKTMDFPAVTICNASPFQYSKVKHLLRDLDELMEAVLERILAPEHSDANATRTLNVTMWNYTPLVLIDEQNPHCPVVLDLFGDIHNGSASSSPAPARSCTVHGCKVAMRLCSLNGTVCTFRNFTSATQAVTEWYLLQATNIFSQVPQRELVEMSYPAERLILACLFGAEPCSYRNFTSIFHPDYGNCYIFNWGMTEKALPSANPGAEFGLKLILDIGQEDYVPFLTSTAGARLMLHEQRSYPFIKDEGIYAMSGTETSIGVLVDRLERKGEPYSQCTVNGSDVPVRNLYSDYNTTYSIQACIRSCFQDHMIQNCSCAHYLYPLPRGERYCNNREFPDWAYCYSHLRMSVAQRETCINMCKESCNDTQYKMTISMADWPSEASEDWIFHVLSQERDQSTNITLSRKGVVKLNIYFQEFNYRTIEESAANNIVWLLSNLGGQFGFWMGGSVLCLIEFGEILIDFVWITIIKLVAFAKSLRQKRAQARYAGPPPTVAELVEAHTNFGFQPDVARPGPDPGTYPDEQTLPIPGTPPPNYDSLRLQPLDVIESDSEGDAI
T1 sequence (A0A8I3MKE6 1-646): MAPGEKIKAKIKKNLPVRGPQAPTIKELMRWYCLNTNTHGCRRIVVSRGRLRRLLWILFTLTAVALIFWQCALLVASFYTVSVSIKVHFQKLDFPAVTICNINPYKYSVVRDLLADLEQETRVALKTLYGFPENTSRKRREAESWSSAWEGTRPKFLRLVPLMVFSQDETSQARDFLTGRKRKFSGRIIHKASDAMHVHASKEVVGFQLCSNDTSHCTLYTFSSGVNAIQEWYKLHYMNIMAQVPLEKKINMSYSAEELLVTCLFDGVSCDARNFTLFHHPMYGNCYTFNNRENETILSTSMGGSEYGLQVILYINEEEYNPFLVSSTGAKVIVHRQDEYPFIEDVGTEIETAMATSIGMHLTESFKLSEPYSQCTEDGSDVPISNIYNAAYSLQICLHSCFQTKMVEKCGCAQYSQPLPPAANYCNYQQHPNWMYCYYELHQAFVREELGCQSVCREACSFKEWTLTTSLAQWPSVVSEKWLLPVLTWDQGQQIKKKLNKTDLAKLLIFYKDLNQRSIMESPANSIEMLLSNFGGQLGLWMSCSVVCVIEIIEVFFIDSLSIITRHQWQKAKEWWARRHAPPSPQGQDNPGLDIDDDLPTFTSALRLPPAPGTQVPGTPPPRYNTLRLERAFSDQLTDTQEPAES
The series is described as follows: In vitro measure of sodium channel blocking activity: inhibition of short circuit current (ISC) in airway epithelial monolayers in Ussing chambers. It is filed as cell-based. To be noted: mean of N runs; for Fold Amiloride** (PSA 4022 = 100) Mean: relative potency for PSA 4022 = 100 using EC50 from PSA 4022 in same run. On the procedure:
One assay used to assess mechanism of action and/or potency of the compounds of the present invention involves the determination of lumenal drug inhibition of airway epithelial sodium currents measured under short circuit current (ISC) using airway epithelial monolayers mounted in Ussing chambers. Cells obtained from freshly excised human, dog, sheep or rodent airways are seeded onto porous 0.4 micron Snapwell™ Inserts (CoStar), cultured at air-liquid interface (ALI) conditions in hormonally defined media, and assayed for sodium transport activity (ISC) while bathed in Krebs Bicarbonate Ringer (KBR) in Using chambers. All test drug additions are to the lumenal bath with half-log dose addition protocols (from 1×10^−11 M to 3×10^−5M), and the cumulative change in ISC (inhibition) recorded. All drugs are prepared in dimethyl sulfoxide as stock solutions at a concentration of 1×10^−2 M and stored at −20° C. […] After the maximal concentration (5×10^−5 M) is administered, the lumenal bath is exchanged three times with fresh drug-free KBR solution, and the resultant ISC measured after each wash for approximately 5 minutes in duration. Reversibility is defined as the percent return to the baseline value for sodium current after the third wash. All data from the voltage clamps are collected via a computer interface and analyzed off-line.
Dose-effect relationships for all compounds are considered and analyzed by the Prism 3.0 program.
PSA 4022 was also tested in each assay as a positive control.

`N=C(NCCCCc1ccc(OCCC(N)C(=O)O)cc1)NC(=O)c1nc(Cl)c(N)nc1N` (centres unmarked) [PSA 17666, 2-amino-4-(4-{4-[N′-(3,5-diamino-6-chloropyrazine-2-carbonyl)-guanidino]butyl}phenoxy)butyric acid]: the melting point lay in the range of 178 to 180 °C. Further, in series [1], it took 29.3 nM to reach a half-maximal effect (EC50) and the “Fold Amiloride** (PSA 4022 = 100) Mean” value is recorded as 34.8.

On to `COC(=O)[C@H](N)CCCc1ccc(CCCCNC(=N)NC(=O)c2nc(Cl)c(N)nc2N)cc1` [PSA 19603, 2-(R)-amino-5-(4-{4-[N′-(3,5-diamino-6-chloropyrazine-2-carbonyl)-guanidino]butyl}phenyl)pentanoic acid methyl ester], for which the melting point was 76 to 79 °C. In series [1], the EC50 was found to be 32.3 nM and the “Fold Amiloride** (PSA 4022 = 100) Mean” value came to 39.4.

Turning to `N=C(NCCCCc1ccc(CCC[C@@H](N)C(=O)O)cc1)NC(=O)c1nc(Cl)c(N)nc1N` [PSA 23184, 2-(R)-amino-5-(4-{4-[N′-(3,5-diamino-6-chloropyrazine-2-carbonyl)-guanidino]butyl}phenyl)pentanoic acid], the melting point is 190 to 192 °C (dec.). Further, in series [1], the 50% effective concentration (EC50) is 17 nM and the “Fold Amiloride** (PSA 4022 = 100) Mean” value is on record as 43.3.

`COC(=O)C(N)CCOc1ccc(CCCCNC(=N)NC(=O)c2nc(Cl)c(N)nc2N)cc1` (centres unmarked) (as salt: hydrochloride) [PSA 17587, 2-amino-4-(4-{4-[N′-(3,5-diamino-6-chloropyrazine-2-carbonyl)-guanidino]butyl}phenoxy)butyric acid methyl ester hydrochloride] displayed a melting point of 88 to 90 °C.

Consider `N=C(NCCCCc1ccc(OCCNCC(N)C(N)=O)cc1)NC(=O)c1nc(Cl)c(N)nc1N` (centres unmarked) (as salt: hydrochloride) [PSA 18704, 2-amino-3-[2-(4-{4-[N′-(3,5-diamino-6-chloropyrazine-2-carbonyl)-guanidino]butyl}phenoxy)ethylamino]propionamide tri-hydrochloride], for which the melting point amounted to 160 °C.

Turning to `COC(=O)[C@@H](N)COc1ccc(CCCCNC(=N)NC(=O)c2nc(Cl)c(N)nc2N)cc1` [PSA 11041, 2-amino-3-(4-{4-[N′-(3,5-diamino-6-chloropyrazine-2-carbonyl)-guanidino]butyl}phenoxy)propionic acid methyl ester], in series [1], the concentration giving a half-maximal response (EC50) was 32 nM and the “Fold Amiloride** (PSA 4022 = 100) Mean” value was determined as 38.6.

Regarding `N=C(NCCCCc1ccc(OCCNCC(N)C(N)=O)cc1)NC(=O)c1nc(Cl)c(N)nc1N` (centres unmarked) [PSA 18704, 2-amino-3-[2-(4-{4-[N′-(3,5-diamino-6-chloropyrazine-2-carbonyl)-guanidino]butyl}phenoxy)ethylamino]propionamide tri-hydrochloride], in series [1], the midpoint of the response, the EC50, lay at 14.1 nM and the “Fold Amiloride** (PSA 4022 = 100) Mean” value is listed as 90.2.

On to `N=C(NCCCCc1ccc(NCC(N)=O)cc1)NC(=O)c1nc(Cl)c(N)nc1N` [PSA 15104, 2-(4-{4-[N′-(3,5-diamino-6-chloropyrazine-2-carbonyl)guanidino]-butyl}phenylamino)acetamide dihydrochloride], for which, in series [1], the EC50 worked out at 19.1 nM and the “Fold Amiloride** (PSA 4022 = 100) Mean” value turned out to be 26.4.

Take `N=C(N)NCCNc1ccc(CCCCNC(=N)NC(=O)c2nc(Cl)c(N)nc2N)cc1` [PSA 17339, N-(3,5-diamino-6-chloropyrazine-2-carbonyl)-N′-{4-[(2-guanidinoethylamino)phenyl]butyl}guanidine trihydrochloride]: it took 6.83 nM to reach a half-maximal effect in series [1] (EC50).

Take `N=C(NCCCCc1ccc(NCCN(C[C@H](O)[C@H](O)CO)C[C@H](O)[C@H](O)CO)cc1)NC(=O)c1nc(Cl)c(N)nc1N` [PSA 17218, N-[4-(4-{2-[bis-((2S,3R)-2,3,4-trihydroxybutyl)amino]ethylamino}phenyl)butyl]-N′-(3,5-diamino-6-chloropyrazine-2-carbonyl)guanidine trihydrochloride]: in series [1], it took 32.4 nM to reach a half-maximal effect (EC50) and the “Fold Amiloride** (PSA 4022 = 100) Mean” value is on record as 24.7.

One may read the melting point as the temperature, or range, at which the solid turns liquid. What is called EC50 is the concentration needed to bring the measured effect to its halfway point. Lower therefore signals higher potency in that assay.
